Measurements taken from patent publication US12338243B2, “P2X7 modulators” (JANSSEN PHARMACEUTICA NV, priority 2014, dated 2025).

How the values were obtained:
rat P2X7 [1] = biological target: T1, rat P2X7 (Rattus norvegicus, UniProt Q64663); assay: Radioligand binding, rat P2X7-1321N1 cell membranes, tritiated A-804598
T1 sequence (Q64663 1-595): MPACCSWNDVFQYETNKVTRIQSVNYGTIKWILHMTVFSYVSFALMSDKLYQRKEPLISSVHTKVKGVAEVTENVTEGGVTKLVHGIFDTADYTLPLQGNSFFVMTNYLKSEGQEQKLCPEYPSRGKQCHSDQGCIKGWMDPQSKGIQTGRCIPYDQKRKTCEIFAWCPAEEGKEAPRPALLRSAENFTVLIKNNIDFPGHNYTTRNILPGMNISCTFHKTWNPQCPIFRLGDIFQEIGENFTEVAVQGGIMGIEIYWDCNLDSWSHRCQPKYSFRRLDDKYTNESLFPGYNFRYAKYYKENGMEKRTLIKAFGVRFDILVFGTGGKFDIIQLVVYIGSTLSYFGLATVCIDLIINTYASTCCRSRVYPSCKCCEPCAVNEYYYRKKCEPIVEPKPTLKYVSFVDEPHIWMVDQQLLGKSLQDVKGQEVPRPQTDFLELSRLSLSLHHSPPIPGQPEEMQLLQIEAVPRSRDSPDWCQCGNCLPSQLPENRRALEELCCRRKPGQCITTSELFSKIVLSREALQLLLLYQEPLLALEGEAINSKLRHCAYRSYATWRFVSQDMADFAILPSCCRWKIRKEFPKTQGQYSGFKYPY
Source text: (§1) P2X7 Antagonism in Recombinant Human P2X7 Cells or Recombinant Rat P2X7 Cells: (a) Ca^2+ Flux and (b) Radioligand Binding

rat P2X7 [2] = biological target: T1, rat P2X7; assay: Ca2+ flux (FLIPR) in 1321N1 cells expressing recombinant rat P2X7 channel; conditions: FLIPR (rat) IC50 (μM), 250 μM BzATP
P2X7 [3] = biological target: T2, P2X7 (Homo sapiens, UniProt Q99572); assay: Ca2+ flux (FLIPR) in 1321N1 cells expressing recombinant human P2X7 channel; assay type: cell-based; set-up: expressed in transfected cells; host or cells: 1321N1 cells; conditions: 250 μM BzATP
T2 sequence (Q99572 1-595): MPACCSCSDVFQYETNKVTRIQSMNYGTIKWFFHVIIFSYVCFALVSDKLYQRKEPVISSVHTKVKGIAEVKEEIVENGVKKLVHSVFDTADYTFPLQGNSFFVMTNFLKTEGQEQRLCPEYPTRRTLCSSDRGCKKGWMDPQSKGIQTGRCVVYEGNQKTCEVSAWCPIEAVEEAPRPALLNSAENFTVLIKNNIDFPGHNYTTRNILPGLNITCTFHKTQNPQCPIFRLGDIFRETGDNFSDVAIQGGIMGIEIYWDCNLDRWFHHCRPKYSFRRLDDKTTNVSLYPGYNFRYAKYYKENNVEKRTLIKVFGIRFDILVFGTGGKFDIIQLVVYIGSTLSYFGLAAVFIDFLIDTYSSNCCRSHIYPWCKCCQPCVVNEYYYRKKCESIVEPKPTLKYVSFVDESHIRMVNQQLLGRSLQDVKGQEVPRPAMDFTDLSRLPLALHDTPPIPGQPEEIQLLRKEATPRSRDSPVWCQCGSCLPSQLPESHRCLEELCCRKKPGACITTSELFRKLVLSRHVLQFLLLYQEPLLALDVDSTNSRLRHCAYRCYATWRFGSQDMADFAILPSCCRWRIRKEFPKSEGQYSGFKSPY
How it was run: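 1321N1 cells expressing recombinant human P2X7, loaded 60 min with Calcium-4 dye in HEPES buffer pH 7.40 (1 mM CaCl2, 1 mM MgCl2), preincubated 30 min with compounds. Fluorescence change recorded 180 seconds after agonist addition.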

P2X7 [4] = biological target: T2, P2X7; assay: Radioligand binding, human P2X7-1321N1 cell membranes, tritiated A-804598
Source text: as §1

For `C[C@H]1Cn2c(nnc2-c2ccccc2F)CN1C(=O)c1cccc(Cl)c1Cl` [Example 38, (S)-(2,3-dichlorophenyl)(3-(2-fluorophenyl)-6-methyl-5,6-dihydro-[1,2,4]triazolo[4,3-a]pyrazin-7(8H)-yl)methanone], which Ki (rat P2X7 [1]) is on record?
The Ki was 56.2 nM.

What about the IC50 (rat P2X7 [2]) of the same compound?
The IC50 was 7.67 µM.

What about the IC50 (P2X7 [3]) of the same compound?
The IC50 was 9930 nM.

How did the IC50 (rat P2X7 [2]) turn out when `Cc1c(C(=O)N2CCn3c(nnc3C(F)(F)F)[C@H]2c2ccccc2)cccc1C(F)(F)F` [Example 122, (R)-(2-methyl-3-(trifluoromethyl)phenyl)(8-phenyl-3-(trifluoromethyl)-5,6-dihydro-[1,2,4]triazolo[4,3-a]pyrazin-7(8H)-yl)methanone] was run?
Its IC50 is 0.262 µM.

And the IC50 (P2X7 [3])?
Its IC50 is 9.8 nM.

What about the Ki (P2X7 [4]) of the same compound?
The Ki was 10 nM.

How did the IC50 (rat P2X7 [2]) turn out when `Cc1c(C(=O)N2CCn3c(C)nnc3[C@@H]2c2ccc(F)cc2)cccc1C(F)(F)F` [Example 117, (S)-(8-(4-fluorophenyl)-3-methyl-5,6-dihydro-[1,2,4]triazolo[4,3-a]pyrazin-7(8H)-yl)(2-methyl-3-(trifluoromethyl)phenyl)methanone] was run?
Its IC50 is 7.03 µM.

What about the IC50 (P2X7 [3]) of the same compound?
The IC50 was 64 nM.

And the Ki (P2X7 [4])?
The Ki was 20 nM.

With `O=C(c1cccc(C(F)(F)F)c1Cl)N1CCn2c(C3CC3)nnc2[C@@H]1c1ccc(F)cc1` [Example 107, (S)-(2-chloro-3-(trifluoromethyl)phenyl)(3-cyclopropyl-8-(4-fluorophenyl)-5,6-dihydro-[1,2,4]triazolo[4,3-a]pyrazin-7(8H)-yl)methanone] as the compound, how does the IC50 (rat P2X7 [2]) read?
The IC50 was 0.178 µM.

And the IC50 (P2X7 [3])?
Its IC50 is 12.8 nM.

What about the Ki (P2X7 [4]) of the same compound?
The Ki was 10 nM.

Which Ki (rat P2X7 [1]) does the source give for `C[C@H]1Cn2c(nnc2-c2cccc(F)c2)CN1C(=O)c1cccc(C(F)(F)F)c1Cl` [Example 42, (S)-(2-chloro-3-(trifluoromethyl)phenyl)(3-(3-fluorophenyl)-6-methyl-5,6-dihydro-[1,2,4]triazolo[4,3-a]pyrazin-7(8H)-yl)methanone] here?
Its Ki is 18.6 nM.

What about the IC50 (rat P2X7 [2]) of the same compound?
Its IC50 is 9.23 µM.

And the IC50 (P2X7 [3])?
The IC50 was 2130 nM.

What does the source list for `O=C(c1ccc(F)c(Cl)c1Cl)N1CCn2c(nnc2C(F)(F)F)[C@H]1c1ccccc1` [Example 124, (R)-(2,3-dichloro-4-fluorophenyl)(8-phenyl-3-(trifluoromethyl)-5,6-dihydro-[1,2,4]triazolo[4,3-a]pyrazin-7(8H)-yl)methanone]?
IC50 (rat P2X7 [2]): 0.288 µM; IC50 (P2X7 [3]): 10.6 nM; Ki (P2X7 [4]): 7.9 nM

What does the source list for `O=C(c1cccc(Cl)c1Cl)N1CCn2c(nnc2C(F)(F)F)C1c1ccccc1` (racemic) [Example 90, (±)-(2,3-dichlorophenyl)(8-phenyl-3-(trifluoromethyl)-5,6-dihydro-[1,2,4]triazolo[4,3-a]pyrazin-7(8H)-yl)methanone]?
IC50 (rat P2X7 [2]): 0.964 µM; IC50 (P2X7 [3]): 11.9 nM; Ki (P2X7 [4]): 20 nM

`CC1c2nnc(-c3ccccn3)n2CCN1C(=O)c1ccnc(C(F)(F)F)c1Cl` (stereo not shown) [Example 16, (3-chloro-2-(trifluoromethyl)pyridin-4-yl)(8-methyl-3-(pyridin-2-yl)-5,6-dihydro-[1,2,4]triazolo[4,3-a]pyrazin-7(8H)-yl)methanone] was tested. Which IC50 (rat P2X7 [2]) did it give?
Its IC50 is 0.0177 µM.

And the IC50 (P2X7 [3])?
The IC50 was 19.5 nM.

And the Ki (P2X7 [4])?
Its Ki is 100 nM.

With `O=C(c1cccc(C(F)(F)F)c1F)N1CCn2c(nnc2C(F)(F)F)[C@H]1c1ccccc1` [Example 128, (R)-(2-fluoro-3-(trifluoromethyl)phenyl)(8-phenyl-3-(trifluoromethyl)-5,6-dihydro-[1,2,4]triazolo[4,3-a]pyrazin-7(8H)-yl)methanone] as the compound, how does the IC50 (rat P2X7 [2]) read?
The IC50 was 0.291 µM.

What about the IC50 (P2X7 [3]) of the same compound?
Its IC50 is 68.5 nM.

And the Ki (P2X7 [4])?
The Ki was 50.1 nM.

Which results are given for `C[C@@H]1c2nnc(-c3ccccn3)n2CCN1C(=O)c1cccc(Cl)c1Cl` (single isomer, unassigned) [Example 2]?
Ki (rat P2X7 [1]): 9.3 nM; IC50 (rat P2X7 [2]): 0.815 µM

How did the IC50 (rat P2X7 [2]) turn out when `O=C(c1cccc(C(F)(F)F)c1Cl)N1CCn2c(nnc2C(F)(F)F)C1c1cccnc1` (racemic) [Example 127, (±)-(2-chloro-3-(trifluoromethyl)phenyl)(8-(pyridin-3-yl)-3-(trifluoromethyl)-5,6-dihydro-[1,2,4]triazolo[4,3-a]pyrazin-7(8H)-yl)methanone] was run?
Its IC50 is 28.2 µM.

What about the IC50 (P2X7 [3]) of the same compound?
The IC50 was 255 nM.

And the Ki (P2X7 [4])?
Its Ki is 126 nM.

For `C[C@H]1c2nnc(-c3ccccn3)n2CCN1C(=O)c1cccc(Cl)c1Cl` (single isomer, unassigned) [Example 3], which Ki (rat P2X7 [1]) is on record?
Its Ki is 1780 nM.

And the IC50 (rat P2X7 [2])?
Its IC50 is greater than 10 µM.

`Cc1nnc2n1CCN(C(=O)c1cccc(Cl)c1Cl)[C@@H]2c1ccccn1` [Example 112, (R)-(2,3-dichlorophenyl)(3-methyl-8-(pyridin-2-yl)-5,6-dihydro-[1,2,4]triazolo[4,3-a]pyrazin-7(8H)-yl)methanone] was tested. Which IC50 (rat P2X7 [2]) did it give?
Its IC50 is 2.82 µM.

And the IC50 (P2X7 [3])?
Its IC50 is 134 nM.

And the Ki (P2X7 [4])?
The Ki was 44.7 nM.

What does the source list for `Cc1nnc2n1CCN(C(=O)c1cccc(C(F)(F)F)c1Cl)[C@@H]2c1ccccn1` [Example 91, (R)-(2-chloro-3-(trifluoromethyl)phenyl)(3-methyl-8-(pyridin-2-yl)-5,6-dihydro-[1,2,4]triazolo[4,3-a]pyrazin-7(8H)-yl)methanone]?
IC50 (rat P2X7 [2]): 2.13 µM; IC50 (P2X7 [3]): 7.5 nM; Ki (P2X7 [4]): 31.6 nM

With `O=C(c1cccc(C(F)(F)F)c1Cl)N1CCn2c(-c3ccco3)nnc2[C@@H]1c1ccccc1` [Example 84, (S)-(2-chloro-3-(trifluoromethyl)phenyl)(3-(furan-2-yl)-8-phenyl-5,6-dihydro-[1,2,4]triazolo[4,3-a]pyrazin-7(8H)-yl)methanone] as the compound, how does the IC50 (rat P2X7 [2]) read?
The IC50 was 0.0031 µM.

What about the IC50 (P2X7 [3]) of the same compound?
Its IC50 is 2.5 nM.

And the Ki (P2X7 [4])?
Its Ki is 20 nM.

What does the source list for `Cc1nnc2n1CCN(C(=O)c1cccc(C(F)(F)F)c1Cl)[C@H]2c1ccc(F)cc1` [Example 115, (S)-(2-chloro-3-(trifluoromethyl)phenyl)(8-(4-fluorophenyl)-3-methyl-5,6-dihydro-[1,2,4]triazolo[4,3-a]pyrazin-7(8H)-yl)methanone]?
IC50 (rat P2X7 [2]): 0.623 µM; IC50 (P2X7 [3]): 8 nM; Ki (P2X7 [4]): 10 nM

Which IC50 (rat P2X7 [2]) does the source give for `Cc1nnc2n1CCN(C(=O)c1cccc(C(F)(F)F)c1Cl)C2c1ccccn1` (racemic) [Example 85, (±)-(2-chloro-3-(trifluoromethyl)phenyl)(3-methyl-8-(pyridin-2-yl)-5,6-dihydro-[1,2,4]triazolo[4,3-a]pyrazin-7(8H)-yl)methanone] here?
The IC50 was 1.02 µM.

What about the IC50 (P2X7 [3]) of the same compound?
Its IC50 is 30.1 nM.

What about the Ki (P2X7 [4]) of the same compound?
The Ki was 39.8 nM.

Which results are given for `CC(O)c1nnc2n1CCN(C(=O)c1cccc(C(F)(F)F)c1Cl)C2c1ccccc1` (racemic) [Example 80, (±)-(2-chloro-3-(trifluoromethyl)phenyl)(3-(1-hydroxyethyl)-8-phenyl-5,6-dihydro-[1,2,4]triazolo[4,3-a]pyrazin-7(8H)-yl)methanone]?
IC50 (rat P2X7 [2]): 0.395 µM; IC50 (P2X7 [3]): 56.3 nM; Ki (P2X7 [4]): 20 nM

For `COc1ccc(-c2nnc3n2C[C@H](C)N(C(=O)c2cccc(Cl)c2Cl)C3)nc1` [Example 72, (S)-(2,3-dichlorophenyl)(3-(5-methoxypyridin-2-yl)-6-methyl-5,6-dihydro-[1,2,4]triazolo[4,3-a]pyrazin-7(8H)-yl)methanone], which Ki (rat P2X7 [1]) is on record?
The Ki was 178 nM.

And the IC50 (rat P2X7 [2])?
Its IC50 is greater than 10 µM.

And the IC50 (P2X7 [3])?
The IC50 was 8590 nM.

For `CC1c2nnc(-c3ccc(Cl)cc3)n2CCN1C(=O)c1cccc(C(F)(F)F)c1Cl` (stereo not shown) [Example 37, (2-chloro-3-(trifluoromethyl)phenyl)(3-(4-chlorophenyl)-8-methyl-5,6-dihydro-[1,2,4]triazolo[4,3-a]pyrazin-7(8H)-yl)methanone], which IC50 (rat P2X7 [2]) is on record?
The IC50 was 4.59 µM.

And the IC50 (P2X7 [3])?
The IC50 was 172 nM.

And the Ki (P2X7 [4])?
The Ki was 251 nM.

With `C[C@H]1Cn2c(nnc2-c2cccc(F)c2)CN1C(=O)c1ccc(F)c(Cl)c1Cl` [Example 43, (S)-(2,3-dichloro-4-fluorophenyl)(3-(3-fluorophenyl)-6-methyl-5,6-dihydro-[1,2,4]triazolo[4,3-a]pyrazin-7(8H)-yl)methanone] as the compound, how does the Ki (rat P2X7 [1]) read?
Its Ki is 133 nM.

What about the IC50 (rat P2X7 [2]) of the same compound?
Its IC50 is greater than 10 µM.

What about the IC50 (P2X7 [3]) of the same compound?
Its IC50 is 9710 nM.
